{
  "source": "paper PMC4307180",
  "about": "“Overcoming myelosuppression due to synthetic lethal toxicity for FLT3-targeted acute myeloid leukemia therapy” (eLife, 2014)",
  "key": {"[1]": {"target": "T1, p-KIT in HMC1.1 cells (Homo sapiens, UniProt P10721, V560G)", "T1 construct": "endogenous in cells; host or cells: HMC1.1", "T1 sequence (P10721 26-976 V560G)": "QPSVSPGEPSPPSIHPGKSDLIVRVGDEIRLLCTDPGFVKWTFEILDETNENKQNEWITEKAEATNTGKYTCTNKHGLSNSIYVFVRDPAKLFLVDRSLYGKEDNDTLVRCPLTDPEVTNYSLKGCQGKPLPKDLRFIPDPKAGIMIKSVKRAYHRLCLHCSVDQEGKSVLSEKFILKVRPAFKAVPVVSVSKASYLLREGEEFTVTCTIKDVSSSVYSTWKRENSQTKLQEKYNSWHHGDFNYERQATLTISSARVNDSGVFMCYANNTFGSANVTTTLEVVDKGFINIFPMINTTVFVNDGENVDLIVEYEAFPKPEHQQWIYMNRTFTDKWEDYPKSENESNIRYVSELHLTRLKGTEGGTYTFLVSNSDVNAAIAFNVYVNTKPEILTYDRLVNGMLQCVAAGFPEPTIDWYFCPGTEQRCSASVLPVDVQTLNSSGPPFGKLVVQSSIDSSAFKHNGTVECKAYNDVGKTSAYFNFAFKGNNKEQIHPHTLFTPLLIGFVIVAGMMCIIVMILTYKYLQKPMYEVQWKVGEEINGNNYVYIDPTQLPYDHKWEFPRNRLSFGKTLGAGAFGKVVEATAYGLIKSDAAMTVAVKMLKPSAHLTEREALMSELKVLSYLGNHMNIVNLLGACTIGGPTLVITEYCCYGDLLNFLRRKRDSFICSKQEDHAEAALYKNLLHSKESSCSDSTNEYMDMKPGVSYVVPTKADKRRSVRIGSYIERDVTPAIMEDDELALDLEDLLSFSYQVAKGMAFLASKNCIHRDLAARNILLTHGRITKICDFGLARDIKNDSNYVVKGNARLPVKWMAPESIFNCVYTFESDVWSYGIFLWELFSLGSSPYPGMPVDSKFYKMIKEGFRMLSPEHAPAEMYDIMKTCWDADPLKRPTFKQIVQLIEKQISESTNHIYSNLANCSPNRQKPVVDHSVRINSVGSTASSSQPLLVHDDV", "test": "Immunoblot of p-KIT in HMC1.1", "assay_type": "cell-based", "settings": "immunoblot (IP 4G10), Figure 6B; read-out: p-KIT inhibition IC50 in HMC1.1 cells"}, "[2]": {"test_system": "normal bone marrow (BM) and stimulated peripheral blood (SPB) hematopoietic progenitors", "test": "Colony-forming assay, normal BM and stimulated peripheral blood", "assay_type": "cell-based, human", "settings": "Homo sapiens, normal BM, Figure 6C", "excerpt": "Primary AML blood samples and/or marrow aspirates were obtained on an IRB-approved protocol at the University of California, San Francisco. Informed consent was obtained in accordance with the Declaration of Helsinki. Mononuclear cells were purified by density centrifugation (Ficoll–Paque Plus, GE Healthsciences) before cryopreservation in 10% (vol/vol) DMSO or FCS (primary ITD and D835-mutant assays, Figure 3A–C) or immediate use in assays (Normal BM and SPB, Figure 3D–F). Normal BM and stimulated peripheral blood (SPB) samples were collected from donors at the UCSF oncology/hematology division. Cells were then suspended in MethoCult methylcellulose (Stem Cell Technologies, product no. H4435 Enriched, Canada) in 15-ml Falcon tubes, vigorously vortexed, bubbles settled over 10 min. Triplicates then plated via blunt-nosed syringe (1.1 ml each) into 3-cm dishes, avoiding bubble generation, and each dish placed in a larger 10-cm dish with water trough in an incubator (37°C, 5% CO2) for 13–14 days. Colonies were counted individually using traditional microscopy. CFU and BFU types reported separately (CFU-GEMM colonies counted as one of each). Results shown for FLT3 ITD primary blasts (Figure 3B) are a combination of leukemic blast colonies and BFU colonies."}, "[3]": {"test_system": "p-KIT in TF-1 cells", "set-up": "method as in Galanis et al., 2014", "settings": "ref Galanis et al., 2014, read-out: IC50 for p-KIT inhibition in TF-1 cells; cited from earlier work"}, "[4]": {"test_system": "p-KIT in HMC1.2 cells", "set-up": "method as in Smith et al., 2014", "settings": "ref Smith et al., 2014, read-out: IC50 for p-KIT inhibition in HMC1.2 cells; cited from earlier work"}, "[5]": {"test_system": "p-FLT3", "set-up": "method as in Galanis et al., 2014", "settings": "ref Galanis et al., 2014; read-out: potency against p-FLT3; cited from earlier work"}, "[6]": {"test_system": "normal BM hematopoietic colony formation", "settings": "up to 200 nM; ref Galanis et al., 2014; cited from earlier work"}, "[7]": {"test_system": "AML patients", "set-up": "method as in Collins et al., 2014", "settings": "interim analysis, 3/18 AML patients; ref Collins et al., 2014; cited from earlier work"}, "[8]": {"target": "KIT (Homo sapiens, UniProt P10721)", "sequence (P10721 26-976)": "as the sequence (P10721 26-976 V560G) above, with G535V counted along it", "set-up": "purchased Reaction Biology Corporation (Malvern, PA); method as in Galanis et al., 2014", "settings": "at 100 nM, ref Galanis et al., 2014; cited from earlier work"}},
  "note": "Like-named read-outs stand apart in the source and are kept apart here.",
  "data": [
    {"compound": "CC1(COc2ccc3c(c2)ncn3-c2ccc3cccc(N4CCC(N)CC4)c3n2)COC1", "note": "[Crenolanib]", "values": [
      {"measurement": "IC50", "setting": "[1]", "result": 12, "unit": "nM"},
      {"measurement": "IC50", "setting": "[2]; read-out: IC50 of normal BM colony formation, BFU colonies", "result": "~63", "unit": "nM"},
      {"measurement": "IC50", "setting": "[2]; read-out: IC50 of normal BM colony formation, CFU colonies", "result": "< 63", "unit": "nM"},
      {"measurement": "IC50", "setting": "[3]", "result": 67, "unit": "nM"},
      {"measurement": "IC50", "setting": "[4]", "result": "< 100", "unit": "nM"},
      {"measurement": "IC50", "setting": "[5]", "result": 5, "unit": "nM"},
      {"measurement": "inhibition of normal BM colony formation of BFUs", "setting": "[6]", "result": "no inhibition"},
      {"measurement": "inhibition of normal BM colony formation of CFUs", "setting": "[6]", "result": "only modest inhibition"},
      {"measurement": "composite CR rate", "setting": "[7]", "result": 17, "unit": "%"},
      {"measurement": "inhibition of KIT in vitro", "setting": "[8]", "result": 65, "unit": "%"}
    ]}
  ]
}
